Test results from patent US12281225B2, “Process for preparing stable polymers containing vinylimidazole” (BASF SE, priority 2018, dated 2025).

Assay: Analysis of active substance: preservative concentration before and after storage in VI-containing polymer solution
Type: physicochemical
Conditions: for active-substance concentration, 0 d, RT: before storage; for active-substance concentration, 14 d, 40° C.: storage 14 d at 40° C.; for active-substance concentration, 28 d, 40° C.: storage 28 d at 40° C.; for active-substance concentration, 60 d 40° C.: storage 60 d at 40° C.
Description: Stability of Preservatives in VI-Containing Polymers:
The following stabilizers for VI-containing polymers (here: aqueous solution of a copolymer of vinylpyrrolidone and vinylimidazole) were tested.
MIT, BIT, CMIT, OIT, DCOIT and iodopropynyl butyl carbamate were determined by RP chromatography with UV detection after dilution of the sample to be tested. An RP18 column was used for this purpose, with an eluent composed of an acid-methanol mixture under isocratic conditions.

| Structure (SMILES) | active-substance concentration, 0 d, RT (in Polymer P1) [ppm] | active-substance concentration, 14 d, 40° C. (in Polymer P1) [ppm] | active-substance concentration, 28 d, 40° C. (in Polymer P1) [ppm] | active-substance concentration, 60 d 40° C. (in Polymer P1) [ppm] | active-substance concentration, 0 d, RT (in Polymer P2) [ppm] | active-substance concentration, 14 d, 40° C. (in Polymer P2) [ppm] | active-substance concentration, 28 d, 40° C. (in Polymer P2) [ppm] | active-substance concentration, 60 d 40° C. (in Polymer P2) [ppm] | active-substance concentration, 0 d, RT (in Polymer P3) [ppm] | active-substance concentration, 14 d, 40° C. (in Polymer P3) [ppm] | active-substance concentration, 28 d, 40° C. (in Polymer P3) [ppm] | active-substance concentration, 60 d 40° C. (in Polymer P3) [ppm] | active-substance concentration, 0 d, RT (in Polymer P4) [ppm] | active-substance concentration, 14 d, 40° C. (in Polymer P4) [ppm] | active-substance concentration, 28 d, 40° C. (in Polymer P4) [ppm] | active-substance concentration, 60 d 40° C. (in Polymer P4) [ppm] | active-substance concentration, 0 d, RT (in Polymer P5 (HP56)) [ppm] | active-substance concentration, 14 d, 40° C. (in Polymer P5 (HP56)) [ppm] | active-substance concentration, 28 d, 40° C. (in Polymer P5 (HP56)) [ppm] | active-substance concentration, 60 d 40° C. (in Polymer P5 (HP56)) [ppm] | also measured |
| --- | --- | --- | --- | --- | --- | --- | --- | --- | --- | --- | --- | --- | --- | --- | --- | --- | --- | --- | --- | --- | --- |
| O=c1[nH]sc2ccccc12 [BIT, 1,2-benzisothiazolin-3-one] | 150 | 101 | 85 | 69 | 150 | 112 | 93 | 80 | 150 | 119 | 99 | 80 | 150 | 117 | 93 | 82 | 150 | 101 | 85 | 69 | active-substance concentration, 0 d, RT (in Polymer P6): 150 ppm; active-substance concentration, 14 d, 40° C. (in Polymer P6): 99 ppm; active-substance concentration, 28 d, 40° C. (in Polymer P6): 83 ppm; active-substance concentration, 60 d 40° C. (in Polymer P6): 66 ppm; active-substance concentration, 0 d, RT (in Polymer P7): 150 ppm; active-substance concentration, 14 d, 40° C. (in Polymer P7): 105 ppm; active-substance concentration, 28 d, 40° C. (in Polymer P7): 88 ppm; active-substance concentration, 60 d 40° C. (in Polymer P7): 72 ppm; active-substance concentration, 0 d, RT (in Polymer P8): 150 ppm; active-substance concentration, 14 d, 40° C. (in Polymer P8): 101 ppm; active-substance concentration, 28 d, 40° C. (in Polymer P8): 85 ppm; active-substance concentration, 60 d 40° C. (in Polymer P8): 69 ppm; active-substance concentration, 0 d, RT (in Polymer P9): 150 ppm; active-substance concentration, 14 d, 40° C. (in Polymer P9): 97 ppm; active-substance concentration, 28 d, 40° C. (in Polymer P9): 78 ppm; active-substance concentration, 60 d 40° C. (in Polymer P9): 60 ppm |
| Cn1sc(Cl)cc1=O [CMIT, 5-chloro-N-methylisothiazolin-3-one] | 150 | 94 | 81 | 59 | 150 | 108 | 89 | 66 | 150 | 117 | 93 | 77 | 150 | 111 | 89 | 73 | 150 | 94 | 81 | 59 | active-substance concentration, 0 d, RT (in Polymer P6): 150 ppm; active-substance concentration, 14 d, 40° C. (in Polymer P6): 91 ppm; active-substance concentration, 28 d, 40° C. (in Polymer P6): 76 ppm; active-substance concentration, 60 d 40° C. (in Polymer P6): 55 ppm; active-substance concentration, 0 d, RT (in Polymer P7): 150 ppm; active-substance concentration, 14 d, 40° C. (in Polymer P7): 96 ppm; active-substance concentration, 28 d, 40° C. (in Polymer P7): 80 ppm; active-substance concentration, 60 d 40° C. (in Polymer P7): 64 ppm; active-substance concentration, 0 d, RT (in Polymer P8): 150 ppm; active-substance concentration, 14 d, 40° C. (in Polymer P8): 94 ppm; active-substance concentration, 28 d, 40° C. (in Polymer P8): 81 ppm; active-substance concentration, 60 d 40° C. (in Polymer P8): 59 ppm; active-substance concentration, 0 d, RT (in Polymer P9): 150 ppm; active-substance concentration, 14 d, 40° C. (in Polymer P9): 82 ppm; active-substance concentration, 28 d, 40° C. (in Polymer P9): 70 ppm; active-substance concentration, 60 d 40° C. (in Polymer P9): 51 ppm |
| CCCCCCCCn1sc(Cl)c(Cl)c1=O [DCOIT, dichloroctylisothiazolinone] | 300 | 244 | 183 | 94 | 300 | 244 | 195 | 109 | 300 | 232 | 183 | 112 | 300 | 246 | 198 | 123 | 300 | 230 | 180 | 94 | active-substance concentration, 0 d, RT (in Polymer P6): 300 ppm; active-substance concentration, 14 d, 40° C. (in Polymer P6): 222 ppm; active-substance concentration, 28 d, 40° C. (in Polymer P6): 184 ppm; active-substance concentration, 60 d 40° C. (in Polymer P6): 98 ppm; active-substance concentration, 0 d, RT (in Polymer P7): 300 ppm; active-substance concentration, 14 d, 40° C. (in Polymer P7): 228 ppm; active-substance concentration, 28 d, 40° C. (in Polymer P7): 189 ppm; active-substance concentration, 60 d 40° C. (in Polymer P7): 106 ppm; active-substance concentration, 0 d, RT (in Polymer P8): 300 ppm; active-substance concentration, 14 d, 40° C. (in Polymer P8): 230 ppm; active-substance concentration, 28 d, 40° C. (in Polymer P8): 180 ppm; active-substance concentration, 60 d 40° C. (in Polymer P8): 94 ppm; active-substance concentration, 0 d, RT (in Polymer P9): 300 ppm; active-substance concentration, 14 d, 40° C. (in Polymer P9): 219 ppm; active-substance concentration, 28 d, 40° C. (in Polymer P9): 165 ppm; active-substance concentration, 60 d 40° C. (in Polymer P9): 87 ppm |
| CCCCNC(=O)OCC#CI [Iodopropynyl butyl carbamate, iodopropynyl butyl carbamate] | 250 | 206 | 176 | 84 | 250 | 225 | 183 | 122 | 250 | 221 | 190 | 107 | 250 | 212 | 188 | 101 | 250 | 206 | 176 | 84 | active-substance concentration, 0 d, RT (in Polymer P6): 250 ppm; active-substance concentration, 14 d, 40° C. (in Polymer P6): 201 ppm; active-substance concentration, 28 d, 40° C. (in Polymer P6): 174 ppm; active-substance concentration, 60 d 40° C. (in Polymer P6): 80 ppm; active-substance concentration, 0 d, RT (in Polymer P7): 250 ppm; active-substance concentration, 14 d, 40° C. (in Polymer P7): 207 ppm; active-substance concentration, 28 d, 40° C. (in Polymer P7): 178 ppm; active-substance concentration, 60 d 40° C. (in Polymer P7): 87 ppm; active-substance concentration, 0 d, RT (in Polymer P8): 250 ppm; active-substance concentration, 14 d, 40° C. (in Polymer P8): 206 ppm; active-substance concentration, 28 d, 40° C. (in Polymer P8): 176 ppm; active-substance concentration, 60 d 40° C. (in Polymer P8): 84 ppm; active-substance concentration, 0 d, RT (in Polymer P9): 250 ppm; active-substance concentration, 14 d, 40° C. (in Polymer P9): 191 ppm; active-substance concentration, 28 d, 40° C. (in Polymer P9): 160 ppm; active-substance concentration, 60 d 40° C. (in Polymer P9): 78 ppm |
| Cn1sccc1=O [MIT, methyl-4-isothiazolin-3-one] | 250 | 217 | 156 | 131 | 250 | 181 | 139 | 116 | 250 | 171 | 140 | 122 | 250 | 164 | 136 | 113 | 250 | 151 | 119 | 94 | active-substance concentration, 0 d, RT (in Polymer P6): 250 ppm; active-substance concentration, 14 d, 40° C. (in Polymer P6): 143 ppm; active-substance concentration, 28 d, 40° C. (in Polymer P6): 117 ppm; active-substance concentration, 60 d 40° C. (in Polymer P6): 87 ppm; active-substance concentration, 0 d, RT (in Polymer P7): 250 ppm; active-substance concentration, 14 d, 40° C. (in Polymer P7): 149 ppm; active-substance concentration, 28 d, 40° C. (in Polymer P7): 123 ppm; active-substance concentration, 60 d 40° C. (in Polymer P7): 91 ppm; active-substance concentration, 0 d, RT (in Polymer P8): 250 ppm; active-substance concentration, 14 d, 40° C. (in Polymer P8): 151 ppm; active-substance concentration, 28 d, 40° C. (in Polymer P8): 119 ppm; active-substance concentration, 60 d 40° C. (in Polymer P8): 94 ppm; active-substance concentration, 0 d, RT (in Polymer P9): 250 ppm; active-substance concentration, 14 d, 40° C. (in Polymer P9): 131 ppm; active-substance concentration, 28 d, 40° C. (in Polymer P9): 98 ppm; active-substance concentration, 60 d 40° C. (in Polymer P9): 80 ppm |
